These are literature values, as cited in patent publication US6818776B2, “Alkali metal salt of thiazolidine-2,4-dione derivative” (Kyorin Pharmaceutical Co., Ltd., priority 2000, dated 2004).

For series [1] the following is noted: reported in M. Nomura et al, Bioorg. Med. Chem. Lett., 1999, 9, 533.
The subject of series [2] is human peroxisome proliferator-activated receptor (PPAR). The note with it: reported in K. Murakami et al, Diabetes. 1998, 47, 1841.

`COc1ccc(CC2SC(=O)NC2=O)cc1C(=O)NCc1ccc(C(F)(F)F)cc1` (centres unmarked) [KRP-297, 5-[(2,4-Dioxothiazolidin-5-yl)methyl]-2-methoxy-N-[[4-(trifluoromethyl)phenyl]methyl]benzamide]: the antihyperglycemic activity result in series [1] is given as “excellent antihyperglycemic activity”. Besides, in series [2], the “agonistic action against human PPAR” value is reported as “agonistic action”.
